We go through 23 compounds from publication PMC7906415, “Metabolite profile of Nectandra oppositifolia Nees & Mart. and assessment of antitrypanosomal activity of bioactive compounds through efficiency analyses” (PLoS ONE, 2021).

Data set [1] is described as follows: Cytotoxicity against mammalian cells, MTT assay (CC50). Type of data set: cell-based, murine. The following applies: mouse. The method, then: Trypanosoma cruzi trypomastigotes (Y strain) were routinely maintained in Rhesus monkey kidney cells (LLC-MK2 –ATCC CCL 7), using RPMI-1640 medium supplemented with 2% FBS at 37°C in a 5% CO2-humidified incubator. The murine conjunctive cells (NCTC clone 929, ATCC) were maintained in RPMI-1640 medium supplemented with 10% FBS at 37°C in a 5% CO2 –humidified incubator. Peritoneal macrophages, used for the amastigote assays, were obtained by washing the peritoneal cavity of BALB/c mice with RPMI-1640 medium supplemented with 10% FBS and were kept at 37°C in a 5% CO2-humidified incubator.
The cytotoxicity assays were performed using NCTC cells-clone 929. The cells were counted, seeded (6 x 10^4 cells/well), and incubated with compounds 1–12 and 7a- 7e (200–1.56 μM—serial dilution) for 48 h at 37°C in a 5% CO2-humidified incubator. The optical density was determined using a FilterMax F5 (Molecular Devices) at 570 nm. The 50% cytotoxic concentration (CC50) values were determined by MTT assay. Selectivity index (SI) values were calculated using the ratio: CC50 against NCTC cells/EC50 against parasites form (amastigotes).
EC50 and CC50 data represent the mean of two independent representative assays tested in duplicate and were calculated using sigmoid dose-response curves with Graph–Pad Prism 6.0 software (San Diego, CA, USA).

Data set [2] relates to Trypanosoma cruzi intracellular amastigotes. Nature of the data set: Activity against intracellular amastigotes of T. cruzi in infected peritoneal macrophages (EC50). Type of data set: cell-based, Trypanosoma cruzi (Y strain). Particulars: for EC50: Trypanosoma cruzi, Peritoneal macrophage, in Mus musculus, read-out: EC50 ± SD; for EC50 / EC50 ± SD: 48 h; for SI (selectivity index): ratio CC50 against NCTC cells/EC50 against amastigote forms. How it is done:
Trypanosoma cruzi trypomastigotes (Y strain) were routinely maintained in Rhesus monkey kidney cells (LLC-MK2 –ATCC CCL 7), using RPMI-1640 medium supplemented with 2% FBS at 37°C in a 5% CO2-humidified incubator. The murine conjunctive cells (NCTC clone 929, ATCC) were maintained in RPMI-1640 medium supplemented with 10% FBS at 37°C in a 5% CO2 –humidified incubator. Peritoneal macrophages, used for the amastigote assays, were obtained by washing the peritoneal cavity of BALB/c mice with RPMI-1640 medium supplemented with 10% FBS and were kept at 37°C in a 5% CO2-humidified incubator. To evaluate the activity against intracellular amastigotes, the peritoneal macrophages obtained from BALB/c mice were infected with trypomastigotes forms of T. cruzi. The macrophages were plated on a 16-well chamber slide (NUNC plate, Merck; 1 x 10^5/well) and incubated for 24 h at 37°C in a 5% CO2-humidified incubator. […] After 2 h of incubation at 37°C in a 5% CO2-humidified incubator, the non-internalized parasites were removed by washing with RPMI-1640 medium. Compounds 1–12 and 7a-7e were incubated by serial dilution (100–1.56 μM) with the infected macrophages (48 h at 37°C, 5% CO2) using benznidazole as the standard drug. At the end of the assay, slides were fixed with MeOH and stained with Giemsa prior to counting under a light microscope (EVOS M5000, THERMO). The EC50 values were calculated as previously described. EC50 and CC50 data represent the mean of two independent representative assays tested in duplicate and were calculated using sigmoid dose-response curves with Graph–Pad Prism 6.0 software (San Diego, CA, USA).

Data set [3] has as its system T. cruzi amastigotes. The following applies: cited from earlier work.
Data set [4] has as its system mammalian cells. Set-up: method as in PMID 31132603. Particulars: cytotoxicity, previous work; cited from earlier work.
Setting [5] is: NCTC clone 929 cells, 48 h, MTT, 200–1.56 μM, read-out: CC50.
[6] abbreviates: intracellular amastigote forms of T. cruzi in BALB/c peritoneal macrophages, 100–1.56 μM.

Read-outs that look alike come from different tables or passages of the source.

As for `CCOC(=O)C1CCC(=O)N1` (stereo in doubt) [Compound 1, ethyl (R)-pyroglutamate], in data set [1] (setting [5]), the CC50 at 48 h is > 200 µM. The EC50 in data set [2] (setting [6]) is > 100 µM.

Consider `O=C(Cn1ccnc1[N+](=O)[O-])NCc1ccccc1` [Benznidazole, benznidazole, reference compound], for which the CC50 at 48 h in data set [1] (setting [5]) was > 200 µM. In data set [2] (setting [6]), the EC50 was 18.7 ± 4.1 µM. In addition, the “SI (selectivity index)” value in data set [2] is given as > 10.7.

As to `O=Cc1c[nH]c2ccccc12` [Compound 2, indole-3-aldehyde], the CC50 at 48 h in data set [1] was > 200 µM. Moreover, the EC50 in data set [2] (setting [6]) was > 100 µM.

For `CC1=CC(=O)CC(C)(C)[C@@]1(O)/C=C/C(C)=C\C(=O)O` [Compound 3, (+)-(S)-abscisic acid], the CC50 at 48 h in data set [1] (setting [5]) is > 200 µM. Moreover, the EC50 in data set [2] is > 100 µM.

As to `CC1(C)CC(O)CC(C)(O)/C1=C\C(=O)O` (stereo not drawn) [Compound 4, 2Z-(2,4-dihydroxy-2,6,6-trimethylcyclohexylidene)acetic acid], the CC50 at 48 h in data set [1] is > 200 µM. Further, the EC50 in data set [2] (setting [6]) was 28.2 ± 2.9 µM. Further, the “SI (selectivity index)” value in data set [2] is > 7.1.

Consider `O=C(O)CCCCCCCC(=O)O` [Compound 5, azelaic acid], for which the CC50 at 48 h in data set [1] (setting [5]) was > 200 µM. The concentration giving a half-maximal response (EC50) in data set [2] (setting [6]) was > 100 µM.

`COc1cc(C(=O)O)ccc1O` [Compound 6, vanillic acid]: the CC50 at 48 h in data set [1] (setting [5]) is > 200 µM. Further, the EC50 in data set [2] (setting [6]) is > 100 µM.

For the compound `CCOC(=O)c1ccc(O)c(O)c1` [Compound 7, ethyl protocatechuate], the CC50 at 48 h in data set [1] (setting [5]) is > 200 µM. Besides, the EC50 in data set [2] (setting [6]) is 18.1 ± 0.3 µM.

With `COC(=O)c1ccc(O)c(O)c1` [Compound 7a], in data set [1] (setting [5]), the CC50 at 48 h was > 200 µM. In addition, in data set [2] (setting [6]), the EC50 is > 100 µM and the “EC50 ± SD” value was “inactive”.

As for `CCCOC(=O)c1ccc(O)c(O)c1` [Compound 7b], the CC50 at 48 h in data set [1] (setting [5]) is > 200 µM. Moreover, the EC50 in data set [2] (setting [6]) turned out to be 20.4 ± 4.2 µM. Also, the “SI (selectivity index)” value in data set [2] is given as > 9.8.

As for `CCCCOC(=O)c1ccc(O)c(O)c1` [Compound 7c], the CC50 at 48 h in data set [1] (setting [5]) is > 200 µM. Besides, the EC50 in data set [2] (setting [6]) came to 19.4 ± 6.3 µM. The “SI (selectivity index)” value in data set [2] is > 10.3.

For `CCCCCOC(=O)c1ccc(O)c(O)c1` [Compound 7d], the CC50 at 48 h in data set [1] (setting [5]) is > 200 µM. In data set [2] (setting [6]), the EC50 was 12.3 ± 3.8 µM. In data set [2], the “SI (selectivity index)” value is recorded as > 16.3.

On to `CCCCCCOC(=O)c1ccc(O)c(O)c1` [Compound 7e], for which, in data set [1] (setting [5]), the CC50 at 48 h was > 200 µM. For the same compound, in data set [2] (setting [6]), the EC50 was 11.7 ± 2.7 µM. Further, the “SI (selectivity index)” value in data set [2] is listed as > 17.1.

With `COc1cc2ccc(=O)oc2cc1O` [Compound 8, scopoletin], the CC50 at 48 h in data set [1] (setting [5]) was > 200 µM. For the same compound, the EC50 in data set [2] (setting [6]) was > 100 µM.

With `COc1cc(C(=O)[C@H](CO)c2ccc(O)c(OC)c2)ccc1O` [Compound 9, (-)-evofolin B], in data set [1] (setting [5]), the CC50 at 48 h is > 200 µM. Moreover, the EC50 in data set [2] (setting [6]) amounted to 27.8 ± 0.2 µM. For the same compound, the “SI (selectivity index)” value in data set [2] is > 7.2.

In the case of `COc1cc(/C=C/C(=O)NCCc2ccc(O)cc2)ccc1O` [Compound 10, moupinamide], the CC50 at 48 h in data set [1] (setting [5]) was > 200 µM. Also, the EC50 in data set [2] (setting [6]) is > 100 µM.

On to `COc1cc(C2OC(c3ccc(O)c(OC)c3)C(C)C2C)ccc1O` (stereo not drawn) [Compound 11, verrucosin], for which, in data set [1] (setting [5]), the CC50 at 48 h is > 200 µM. Further, in data set [2] (setting [6]), the EC50 came to 36.8 ± 4.9 µM. Also, the “SI (selectivity index)” value in data set [2] was > 5.4.

Regarding `COc1cc([C@H]2O[C@@H](c3ccc(O)c(OC)c3)[C@H](C)[C@@H]2C)ccc1O` [Compound 12, nectandrin B], the CC50 at 48 h in data set [1] (setting [5]) is > 200 µM. For the same compound, in data set [2] (setting [6]), the EC50 is 31 ± 0.3 µM. Also, the “SI (selectivity index)” value in data set [2] was > 6.4.

Turning to `C=C1OC(=O)/C(=C\CCCCCCCCCCCCCCC)[C@H]1O` [isolinderanolide E], the EC50 in data set [3] (amastigote forms of T. cruzi) is 10.1 µM.

Consider `CCCCCCCCOC(=O)c1ccc(O)c(O)c1` [n-octyl ester of protocatechuic acid], for which the CC50 in data set [4] is 108 µM. Also, in data set [3] (T. cruzi amastigotes), the EC50 is 13.9 µM.

With `CCCCCCCCOC(=O)c1ccc(O)c(OC)c1` [n-octyl ester of vanillic acid], the EC50 in data set [3] (T. cruzi amastigotes) is 6.8 µM.

As to `O=C(O)c1ccc(O)c(O)c1` [protocatechuic acid, reference compound], in data set [1] (setting [5]), the CC50 at 48 h was > 200 µM. The half-maximal effective concentration (EC50) in data set [2] was > 100 µM. In addition, the “EC50 ± SD” value in data set [2] (setting [6]) was “inactive”.

As for Isolinderanolide D, the EC50 in data set [3] (amastigote forms of T. cruzi) was 25.3 µM.
